{"source": "patent US20110086089A1", "about": "“USE OF P27KIP1 FOR THE PREVENTION AND TREATMENT OF HEART FAILURE” (UNIVERSITY HEALTH NETWORK, priority 2008, published 2011)", "key": {"[1]": {"system": "p27 degradation in cardiomyocytes", "test": "Ang II-triggered p27 degradation / p27 half-life in cardiomyocytes", "type": "cell-based, rat", "conditions": "for p27 degradation: proteasome inhibitors, conditions not given; for Ang II-triggered decrease in p27 protein levels / p27 destabilization: cardiomyocytes + Ang II, lactacystin 10 μM 30 min pre-treatment, DMAT 30 minutes prior, lentivirus 72 h", "procedure": "FIG. 3 is a series of graphs, blots and cell stainings showing essential function of CK2-alpha-prime-mediated p27 degradation for cardiomyocyte hypertrophy. […] Cells were transduced with TAT-conjugated wt.p27 (2.5 μg/ml), phosphorylation resistant p27deltaPi, or phosphomimicking mutant p27.S83D/T187D for 1 h before Ang II addition for 4 h. Isotypic anti-CK2-alpha-prime immunocomplex kinase assays were performed employing histone H1 substrate. Input levels of transduced TAT-fusion proteins were determined prior to Ang II addition by immunoblotting of total cell extracts. Mean±s.e.m., n=3. *P<0.01 vs unstimulated cells. **P<0.01 vs Ang II. #P<0.01. endog, endogenous. (B) Pharmacological inhibition of the 26S-proteasome abrogates Ang II-triggered p27 degradation. […] Alternatively, lactacystin-treated cardiomyocytes were transduced with TAT-conjugated CK2-alpha-prime or p27deltaPi (2.5 μg/ml) for 1 h prior to Ang II addition. Anti-CK2-alpha-prime immunocomplex kinase assays were performed employing histone H1 as substrate. Western blots of total cell extracts (50 μg/lane) were probed with antibodies as indicated on the left. (C) Inhibition of CK2-alpha-prime prevents Ang II-induced degradation of p27. […] Cells were then chased with excess cold methionine in the presence of Ang II and cycloheximide (100 μg/ml) to block protein synthesis for the indicated timepoints. Alternatively, cells were incubated with DMAT for 30 minutes prior to Ang II stimulation. p27 was immunoprecipitated employing anti-p27 covalently linked to protein A-agarose. Aliquots of total cell extracts were resolved on SDS-PAGE, transferred to nitrocellulose-membranes, autoradiographed (right panel), and quantified with ImageJ software (left panel). (B, C) One typical result of two independent experiments is shown. (D) Subcellular localization of p27 and S83 phosphorylated p27 in Ang II-stimulated cardiomyocytes. Cells were transduced with lentiviruses encoding siCK2-alpha-prime or siControl for 72 h prior to Ang II treatment for the indicated timepoints. […] De novo protein synthesis was determined by in vivo labeling of cardiomyocytes with [^35S]methionine (right panel). Cell size was determined by indirect immunofluorescence microscopy employing anti-tropomyosin staining and ImageJ. Expression levels of endogenous CK2-alpha-prime and p27 were determined by immunoblotting of total cell extracts employing specific antibodies as indicated. Ectopic SR.CK2-alpha-prime and SR.p27 were detected using anti-His. […]\nFor metabolic labeling, cardiomyocytes were pulsed-labeled with 100 μCi/ml [^35S]methionine/cysteine (1000 Ci/mmol; EasyTag, NEN) for 2 h in methionine/cysteine-deficient medium (DME, ICN). […] The amount of incorporated radioactive label was determined with ImageJ software. […]"}, "[2]": {"system": "p27 phosphorylation at S83 and T187 in cardiomyocytes", "test": "p27 phosphorylation at S83 and T187 in Ang II-treated cardiomyocytes (Western blot)", "type": "cell-based, rat", "conditions": "Ang II 4 h; lentiviruses 72 h; DMAT 20 μM pre-incubated 30 min; TAT-conjugated CK2-alpha-prime 2.5 μg/ml 1 h", "procedure": "FIG. 2 is a series of graphs and blots showing Ang II triggers CK2-alpha-prime-dependent phosphorylation of p27 on S83 and T187 in cardiomyocytes. (A) p27 is a substrate of CK2-alpha-prime. […] In vitro kinase assays employing recombinant wt.p27 (1 μg) or phosphorylation site mutants of p27 as substrates were incubated with recombinant CK2-alpha-prime/beta (200 ng). Aliquots of the reaction mixtures were resolved on SDS-PAGE, electrotransferred to nitrocellulose membranes, and the amount of incorporated radioactive [^32P}-label into p27 was quantified with a PhosphorImager and ImageJ software. Individual membranes were probed with anti-CK2-alpha-prime, anti-p27 (input), or phosphorylation site specific antibodies to p27. […] Samples were resolved on SDS-PAGE, transferred to nitrocellulose-membranes, and the amount of incorporated radioactive label into histones was quantified with a PhosphorImager and ImageJ. The input amount of each CK2-alpha-prime and p27 protein used in the kinase reaction mixtures was monitored by immunoblot analysis employing anti-His. […] Biochemically fractionated extracts corresponding to 4×10^5 cells per lane were analyzed by immunoblotting employing antibodies as indicated on the left. […]"}, "WT mice": {"system": "WT mice", "test": "Reversal of established Ang II-dependent cardiac hypertrophy (16 days infusion, injections from day 8)", "type": "in vivo", "conditions": "daily i.p. injections 20 mg/kg initiated at day 8", "excerpt": "FIG. 10 is the experimental treatment protocol. To examine the therapeutic effect of p27 on established cardiac hypertrophy, p27 injections were initiated at 8 days after Ang II-infusion.\nTo examine the effect of transduced p27 on established cardiac hypertrophy, mice were chronically infused with Ang II for 16 days and intraperitoneally injected recombinant TAT-conjugated p27ΔPi and beta-galactosidase (β-Gal) proteins starting from day 8. After 16 days of Ang II-infusion, the heart/body weight ratio were increased by 45% compared to saline-infused controls (FIG. 11B; group 7 vs. group 6). […] Transduced p27ΔPi regressed the increase in heart size by 47% as compared to β-Gal control injections (group 3 vs group 4). In Ang II-infused mice treated with p27ΔPi values of left ventricular posterior wall and interventricular septum thickness, LVEDD, LVESD, FS and EF were not significant different compared to saline-infused mice. Thus, p27 can reverse established compensated cardiac hypertrophy without exerting any deleterious effect on cardiac function.\nSpontaneously beating cardiomyocytes from heart ventricles of neonatal rats were cultured and subjected to treatment with angiotensin II (Ang II). DMAT (2-dimethylamino-4,5,6,7-tetrabromo-1H-benzimidazol), DMSO, lactacystin and LLM were obtained from Calbiochem. Ang II was purchased from Sigma. Animal usage was in accordance with approved institutional animal care guidelines. Age-matched male WI C57BL/6 and p27^−/− mice were used in this study. For results shown in FIGS. 1 to 9: Ang II was chronically infused subcutaneously by osmotic pumps (model 2000, Alzet) at a dose of 1.4 μg/kg per minute for 14 days. TAT.proteins (10 mg/kg) were injected intraperitoneally once daily for 14 days. For results shown in FIGS. 10 to 12: Ang II was chronically infused subcutaneously by osmotic pumps (model 2000, Alzet) at a dose of 0.7 μg/kg per minute for 16 days. TAT.proteins (20 mg/kg) were injected intraperitoneally once daily for 8 days starting at day 8. Thoracic aortic banding (TAB) and pressure gradient measurements were performed as described^39.\nAfter fixation in paraformaldehyde (4% in PBS, pH 7.4), a transverse midsection (3 μm thickness) was stained with Alexa Fluor® 488-conjugated wheat germ agglutinin for cross sectional measurements. Cardiomycoyte area was determined by planimetry employing ImageJ software. A total of 200 cells were counted in each group."}}, "data": [{"compound": "alpha-methylomuralide", "values": [{"measurement": "p27 degradation", "setting": "[1]", "value": "inhibit p27 degradation"}]}, {"compound": "CC(=O)N[C@@H](CSC(=O)[C@]1([C@@H](O)C(C)C)NC(=O)[C@H](C)[C@@H]1O)C(=O)O", "note": "[lactacystin]", "values": [{"measurement": "Ang II-triggered decrease in p27 protein levels / p27 destabilization", "setting": "[1]", "value": "sensitive to proteasome inhibition"}]}, {"compound": "CN(C)c1nc2c(Br)c(Br)c(Br)c(Br)c2[nH]1", "note": "[DMAT, 2-dimethylamino-4,5,6,7-tetrabromo-1H-benzimidazol, reference compound]", "values": [{"measurement": "S83/T187 phosphorylation of p27 in cardiomyocytes", "setting": "[2]", "value": "abolished"}, {"measurement": "Ang II-triggered decrease in p27 protein levels / p27 destabilization", "setting": "[1]", "value": "prevented p27 destabilization"}]}, {"compound": "TAT-β-Gal: recombinant TAT-conjugated beta-galactosidase, control injections", "values": [{"measurement": "Heart weight", "setting": "WT mice; Ang II infusion 16 days (0.7 μg/kg per minute)", "value": "159 ± 7.3", "unit": "mg"}, {"measurement": "FS", "setting": "WT mice; Ang II infusion 16 days", "value": "44 ± 1.6", "unit": "%"}, {"measurement": "Heart weight/body weight", "setting": "WT mice; Ang II infusion 16 days", "value": "6.9 ± 0.2", "unit": "mg/g"}, {"measurement": "IVSD", "setting": "WT mice; Ang II infusion 16 days", "value": "1.4 ± 0.1", "unit": "mm"}, {"measurement": "LVEDD", "setting": "WT mice; Ang II infusion 16 days", "value": "3.8 ± 0.1", "unit": "mm"}, {"measurement": "LVEF", "setting": "WT mice; Ang II infusion 16 days", "value": "78 ± 3.7", "unit": "%"}, {"measurement": "LVESD", "setting": "WT mice; Ang II infusion 16 days", "value": "2.7 ± 0.2", "unit": "mm"}, {"measurement": "PWD", "setting": "WT mice; Ang II infusion 16 days", "value": "1.4 ± 0.1", "unit": "mm"}]}, {"compound": "CC(C)C[C@H](NC(=O)[C@H](Cc1ccccc1)NC(=O)c1cnccn1)B(O)O", "note": "[PS-341]", "values": [{"measurement": "p27 degradation", "setting": "[1]", "value": "inhibit p27 degradation"}]}]}
